Measurements taken from patent US12642270B2, “Substituted thiophene carboxamides, thiophene carboxylic acids and derivatives thereof” (Bayer Aktiengesellschaft, priority 2019, dated 2026).

Test: Log P by HPLC on reversed phase columns (EEC directive 79/831 Annex V.A8)
Type: physicochemical
Settings: for chromatographic logP: reversed phase HPLC columns, value in preparation example, method not marked
Outline: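 Reversed-phase HPLC per EEC 79/831 Annex V.A8, LC-UV with 10→95% acetonitrile linear gradient; eluent [a] 0.1% formic acid (acidic), [b] 0.001 M ammonium acetate (neutral), [c] 0.1% phosphoric acid (acidic). Calibrated with C3–C16 straight-chain alkan-2-ones, linear interpolation of retention times; multiple values joined by "+".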

[1] = method [a]: LC-UV, acidic range, 0.1% formic acid in water and acetonitrile
[2] = method marker [a] given with each value, Table 1.1, compounds of formula (I)
[3] = LogP method [a], compounds of formula (I), Table 1.1
[4] = method [a], compounds of formula (I), Table 1.1

O=C(O)c1cc(Br)c(F)s1 [II.035]
LogP [1]: 1.94^[a]

N#CCNC(=O)c1sc(C#N)c(Br)c1Br [1.1058]
LogP [2]: 2.12^[a]

COC(=O)C(CCSC)NC(=O)c1sc(Br)c(Br)c1Cl (centres unmarked) [1.0766]
LogP (method marked [a]): 4.04^[a]

CCOC(=O)C(NC(=O)c1sc(Br)c(Br)c1F)C(C)C (centres unmarked) [1.0451]
LogP [3]: 2.63^[a]

CCOC(=O)C1(CNC(=O)c2sc(Br)c(Br)c2F)CC1 [1.0445]
LogP [3]: 3.86^[a]

CCOC(=O)C(Cc1ccccc1)NC(=O)c1sc(Br)c(Br)c1Cl (centres unmarked) [1.0149]
LogP (method [a]): 5.00^[a]

CCOC(=O)C1(NC(=O)c2sc(Br)c(Cl)c2C)CN(C(=O)OC(C)(C)C)C1 [1.0277]
LogP (method marked [a]): 4.19^[a]

O=C(NC(CC(F)F)C(=O)O)c1sc(Cl)c(Cl)c1Br (centres unmarked) [1.0337]
LogP (method marked [a]): 2.81^[a]

CCOC(=O)C1(NC(=S)c2sc(Cl)c(Br)c2Cl)CC1 [1.0325]
LogP (method marked [a]): 4.55^[a]

CCOC(=O)C(C)NC(=O)c1sc(Br)c(Cl)c1F (centres unmarked) [1.0425]
LogP [3]: 3.38^[a]

COC(=O)C(C)(C)NC(=O)c1cc(Br)c(C(F)(F)F)s1 [1.0718]
LogP (method marked [a]): 3.23^[a]

O=C(O)c1cc(Cl)c(Br)s1 [II.040]
LogP [1]: 2.23^[a]

CCOC(=O)C(NC(=O)c1sc(C#N)c(Cl)c1Cl)C(C)C (centres unmarked) [1.0575]
LogP (method [a]): 3.89^[a]

COC(=O)c1sc(C)c(Br)c1F [II.084]
LogP [1]: 3.15^[a]

COC(=O)CNC(=O)c1sc(Br)c(C#N)c1Cl [1.0690]
LogP (method marked [a]): 2.19^[a]

CC(C)(C)OC(=O)C1(NC(=O)c2sc(Cl)c(Cl)c2Br)CCC1 [1.0891]
LogP (method [a]): 5.28^[a]

CCOC(=O)CN(O)C(=O)c1sc(Cl)c(Cl)c1Br [1.0491]
LogP [3]: 2.95^[a]

N#CC1(NC(=O)c2sc(Br)c(Br)c2F)CCC(c2ccccc2)CC1 (centres unmarked) [I.1009]
LogP [1]: 4.78^[a]

CCOC(=O)C(Cc1ccccc1)NC(=O)c1sc(Br)c(C#N)c1Cl (centres unmarked) [1.0675]
LogP (method marked [a]): 4.06^[a]

CCOC(=O)C1(NC(=O)c2sc(Br)c(Br)c2F)CCC1 [1.0166]
LogP (method [a]): 3.78^[a]

Cc1c(C(=O)NC2(C#N)CCC2)sc(Cl)c1Br [1.0107]
LogP [4]: 4.53^[a]

CCOC(=O)C(CC(C)C)NC(=O)c1cc(Cl)c(Br)s1 (centres unmarked) [1.0444]
LogP [3]: 4.19^[a]

O=C(NC1(C(=O)O)CCC1)c1sc(Br)c(Br)c1F [1.0172]
LogP (method [a]): 2.62^[a]

Cc1c(C(=O)NC(C#N)Cc2ccccc2)sc(Br)c1Cl (centres unmarked) [1.0114]
LogP [4]: 3.92^[a]

CCOC(=O)CNC(=O)c1sc(C#N)c(Br)c1C [I.0024, ethyl N-[(4-bromo-5-cyano-3-methyl-2-thienyl)carbonyl]glycinate]
chromatographic logP: 2.4

O=C(CNC(=O)c1sc(Br)c(Br)c1F)Oc1ccccc1 [1.0863]
LogP (method [a]): 3.58^[a]

NC(=O)CCC(NC(=O)c1sc(Br)c(Br)c1F)C(=O)O (centres unmarked) [1.0230]
LogP (method [a]): 1.65^[a]

COC(=O)C(NC(=O)c1sc(Br)c(Cl)c1C)C1CC1 (centres unmarked) [1.0120]
LogP [4]: 3.35^[a]

COC(=O)C1(NC(=O)c2cc(Br)c(C(F)(F)F)s2)CCC1 [1.0722]
LogP (method marked [a]): 3.33^[a]

CCOC(=O)c1sc(C)c(Cl)c1Cl [II.063]
LogP [1]: 4.03^[a]

O=C(NC1(C(=O)OC2CCC2)CC1)c1sc(Br)c(Cl)c1F [1.0592]
LogP (method [a]): 3.72^[a]

COC(=O)C1(NC(=S)c2sc(Cl)c(Cl)c2Br)CC1 [1.0334]
LogP (method marked [a]): 4.06^[a]

O=C(O)CNC(=O)c1sc(Br)c(Br)c1F [I.0227, N-[(4,5-dibromo-3-fluoro-2-thienyl)carbonyl]glycine]
chromatographic logP: 1.97

N#Cc1c(C(=O)NC2(C(N)=O)CC2)sc(Cl)c1Cl [1.0807]
LogP (method [a]): 1.71^[a]

CCOC(=O)C1(NC(=O)c2sc(C(F)F)c(Br)c2Br)CCC1 [1.0518]
LogP [3]: 3.75^[a]

CCOC(=O)C(NC(=O)c1sc(Cl)c(C#N)c1Cl)C(C)C (centres unmarked) [1.0396]
LogP (method marked [a]): 3.81^[a]

N#Cc1c(C(=O)NC2CCOC2=O)sc(Cl)c1Cl (centres unmarked) [I.0818]
LogP [1]: 2.02^[a]

CCOC(=O)C1(NC(=O)c2sc(Br)c(Br)c2F)COC1 [1.0046]
LogP [4]: 2.77^[a]

CCOC(=O)C(CCSC)NC(=O)c1sc(Br)c(Cl)c1Br (centres unmarked) [1.0838]
LogP (method [a]): 4.55^[a]

CCOC(=O)C(NC(=O)c1sc(Cl)c(Cl)c1Br)C(F)(F)F (racemic) [1.0946]
LogP [2]: 4.52^[a]

COC(=O)CNC(=O)c1sc(Br)c(C(F)F)c1Br [1.0647]
LogP (method [a]): 2.56^[a]

CCOC(=O)C(CC(C)C)NC(=O)c1sc(Cl)c(Br)c1Br (centres unmarked) [1.0215]
LogP (method [a]): 5.18^[a]

CCOC(=O)C1(NC(=S)c2sc(Cl)c(Cl)c2Br)CC1 [1.0323]
LogP (method marked [a]): 4.51^[a]

CCOC(=O)CNC(=O)c1cc(Cl)c(F)s1 [1.0899]
LogP (method [a]): 2.23^[a]

CC(C)COC(=O)c1cc(Cl)c(Br)s1 [II.050]
LogP [1]: 5.28^[a]

COC(=O)C(CSC(=O)N(C)C)NC(=O)c1sc(Br)c(Br)c1Cl (centres unmarked) [1.0535]
LogP (method [a]): 3.59^[a]

CCOC(=O)C(Cc1ccccc1)NC(=O)c1sc(Br)c(Cl)c1F (centres unmarked) [1.0433]
LogP [3]: 4.48^[a]

COC(=O)C1(NC(=O)c2sc(C#N)c(Cl)c2Br)CC1 [1.0667]
LogP (method marked [a]): 2.42^[a]

N#CC1(NC(=O)c2sc(Br)c(Br)c2Cl)CCCSC1 (centres unmarked) [1.1055]
LogP [2]: 3.85^[a]

CCOC(=O)C(Cc1ccccc1)NC(=O)c1sc(Cl)c(Cl)c1C#N (centres unmarked) [1.0685]
LogP (method marked [a]): 3.98^[a]

Cc1c(C(=O)NCC(=O)SCc2ccccc2)sc(Cl)c1Br [1.0022]
LogP [4]: 4.37^[a]

CCOC(=O)C(CC(N)=O)NC(=O)c1sc(Br)c(Cl)c1C (centres unmarked) [1.0043]
LogP [4]: 2.22^[a]

Cc1c(C(=O)NCC(=O)OCc2ccccc2)sc(C#N)c1Br [1.0973]
LogP [2]: 3.26^[a]

CCOC(=O)CNC(=O)c1sc(Br)c(I)c1C [1.0087]
LogP [4]: 3.09^[a]

COC(=O)C1(NC(=O)c2sc(Cl)c(C#N)c2Br)CCC1 [1.0661]
LogP (method marked [a]): 2.87^[a]

COC(=O)C1(NC(=O)c2sc(F)c(Br)c2Br)CC1 [1.0707]
LogP (method marked [a]): 2.76^[a]

CCOC(=O)C(Cc1c[nH]c2ccccc12)NC(=O)c1sc(Cl)c(Br)c1C (centres unmarked) [1.0128]
LogP [4]: 4.15^[a]

CCOC(=O)C(C)NC(=O)c1sc(Br)c(Br)c1C(F)(F)F (centres unmarked) [1.0369]
LogP (method marked [a]): 3.35^[a]

COC(=O)C(NC(=O)c1sc(Cl)c(Cl)c1C#N)C1CC1 (centres unmarked) [1.0695]
LogP (method marked [a]): 2.89^[a]

O=C(NC(C(=O)O)C1CC1)c1cc(Cl)c(Br)s1 (centres unmarked) [1.0284]
LogP (method marked [a]): 2.41^[a]

N#CCNC(=O)c1sc(Br)c(Br)c1F [1.0205]
LogP (method [a]): 2.41^[a]

COC(=O)C1(NC(=S)c2sc(C#N)c(Br)c2C)CC1 [1.0335]
LogP (method marked [a]): 3.10^[a]

O=C(NC1(C(=O)OCC2CC2)CCC1)c1sc(Cl)c(Cl)c1Br [1.0905]
LogP (method [a]): 4.78^[a]

COC(=O)C(C)(C)NC(=O)c1sc(Br)c(Br)c1Cl [1.1020]
LogP [2]: 3.75^[a]

COC(=O)CC(C)NC(=O)c1sc(Br)c(Br)c1F (centres unmarked) [1.0448]
LogP [3]: 3.14^[a]

COC(=O)CNC(=O)c1sc(Br)c(Cl)c1F [1.0422]
LogP [3]: 2.47^[a]

CC(C)(C)OC(=O)C1(NC(=O)c2sc(Br)c(Br)c2Cl)CC1 [1.0898]
LogP (method [a]): 5.28^[a]

COC(=O)C1(NC(=O)c2sc(Br)c(Br)c2C(F)F)CC1 [1.0356]
LogP (method marked [a]): 2.86^[a]

O=C(NC1CCSC1=O)c1sc(Br)c(Br)c1F (centres unmarked) [I.0006]
LogP [1]: 2.84^[a]

CCOC(=O)C(Cc1ccccc1)NC(=O)c1cc(Br)c(C#N)s1 (centres unmarked) [1.0055]
LogP [4]: 3.50^[a]

N#CCNC(=O)c1sc(Cl)c(C#N)c1Br [1.0663]
LogP (method marked [a]): 2.03^[a]

CCOC(=O)c1cc(Br)c(Cl)s1 [II.048]
LogP [1]: 4.21^[a]

COC(=O)C(NC(=O)c1sc(Br)c(Br)c1F)C1CC1 (centres unmarked) [1.0121]
LogP [4]: 3.43^[a]

CCOC(=O)C(COC)NC(=O)c1sc(Br)c(Br)c1Cl (centres unmarked) [1.0776]
LogP (method marked [a]): 3.91^[a]

O=C(NC1(C(=O)OCc2ccccc2)CCC1)c1sc(Cl)c(Cl)c1Br [1.0888]
LogP (method [a]): 5.00^[a]

COC(=O)c1sc(C#N)c(Br)c1Cl [II.080]
LogP [1]: 3.02^[a]

CCOC(=O)C(CCSC)NC(=O)c1sc(Cl)c(Br)c1Cl (centres unmarked) [1.0186]
LogP (method [a]): 4.47^[a]

O=C(NC1(C(=O)O)CC1)c1cc(Cl)c(Br)s1 [1.0455]
LogP [3]: 1.99^[a]

COC(=O)C(C1CC1)N(O)C(=O)c1sc(Cl)c(Cl)c1Br (centres unmarked) [1.0544]
LogP (method [a]): 3.05^[a]

CCOC(=O)C(Cc1ccccc1)NC(=O)c1cc(Br)c(F)s1 (centres unmarked) [1.0315]
LogP (method marked [a]): 3.77^[a]

CNC(=S)SC[C@H](NC(=O)c1sc(Br)c(Br)c1Cl)C(=O)OC [1.0537]
LogP (method [a]): 3.54^[a]

O=C(NC(C(=O)NC(C(=O)O)C1CC1)C1CC1)c1sc(Cl)c(Cl)c1Br (centres unmarked) [1.0289]
LogP (method marked [a]): 2.97^[a]

CCOC(=O)CNC(=O)c1cc(Br)c(Cl)s1 [1.0457]
LogP [3]: 2.63^[a]

CCOC(=O)C1(NC(=O)c2cc(C)c(Cl)s2)CC1 [1.0466]
LogP [3]: 2.52^[a]

CCOC(=O)C(NC(=O)c1sc(I)c(Br)c1C)C(C)C (centres unmarked) [1.0100]
LogP [4]: 4.30^[a]

CCOC(=O)C(CCSC)NC(=O)c1sc(C#N)c(Cl)c1C (centres unmarked) [1.0305]
LogP (method marked [a]): 3.28^[a]

COC(=O)C1(NC(=O)c2sc(Cl)c(Br)c2F)CCC1 [1.0641]
LogP (method [a]): 3.29^[a]

COC(=O)C(NC(=O)c1sc(Br)c(Br)c1Cl)c1cccs1 (racemic) [1.0942]
LogP [2]: 4.25^[a]

CCOC(=O)C(NC(=O)c1cc(F)c(Br)s1)C(C)C (racemic) [1.0003]
LogP [4]: 3.46^[a]

CCOC(=O)C(Cc1ccccc1)NC(=O)c1sc(C#N)c(Br)c1C (racemic) [1.0028]
LogP [4]: 3.74^[a]

CCOC(=O)C1(NC(=S)c2cc(Cl)c(Br)s2)CC1 [1.0479]
LogP [3]: 3.92^[a]

COC(=O)[C@@H](CCSC)NC(=O)c1sc(Br)c(Br)c1F [1.0158]
LogP (method [a]): 3.62^[a]

N#Cc1sc(C(=O)NC2CCOC2=O)c(Cl)c1Cl (centres unmarked) [I.0819]
LogP [1]: 2.05^[a]

O=C(NC(C(=O)OC1CCC1)C1CC1)c1sc(Br)c(Br)c1F (racemic) [1.0922]
LogP (method [a]): 4.59^[a]

COC(=O)C(CC(F)F)NC(=O)c1sc(Cl)c(Cl)c1I (centres unmarked) [1.0192]
LogP (method [a]): 3.64^[a]
